Source: patent US12643871B2, “Aryl formamide compound containing chiral sulfur oxide or salt thereof, preparation method, herbicidal composition and use thereof” (Qingdao Kingagroot Chemical Compound Co., Ltd., priority 2019, dated 2026)

Tests used:
Assay type in all cases: in vivo
[1] = tested on: Abutilon theophrasti; test: Weeding effect in post-emergence stage; conditions: 250 g/ha; 2 leaf stage; 15 days after application; fresh weight control rate
Procedure, shortened: (§1)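 Pot-grown weeds sprayed post-emergence at the 2-leaf stage, 2 weeks after sowing, with compound in acetone/Tween 80 plus 1.5 L/ha methyl oleate concentrate at 500–15 g/ha. Fresh-weight growth control scored after 15 days in greenhouse, mean of three replicates, graded levels 0–5 (5: >85%, 0: <5%).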

[2] = tested on: Amaranthus retroflexus; test: Weeding effect in post-emergence stage; conditions: 250 g/ha; 2 leaf stage; 15 days after application; fresh weight control rate
Procedure, shortened: as §1

[3] = tested on: Digitaria sanguinalis; test: Weeding effect in post-emergence stage; conditions: 250 g/ha; 2 leaf stage; 15 days after application; fresh weight control rate
Procedure, shortened: as §1

[4] = tested on: Echinochloa crusgali; test: Weeding effect in post-emergence stage; conditions: 250 g/ha; 2 leaf stage; 15 days after application; fresh weight control rate
Procedure, shortened: as §1

[5] = tested on: Setaria viridis; test: Weeding effect in post-emergence stage; conditions: 250 g/ha; 2 leaf stage; 15 days after application; fresh weight control rate
Procedure, shortened: as §1

[6] = tested on: key weeds such as Digitaria sanguinalis, Leptochloa chinensis; test: Comparison experiment (post-emergence, Tables 4-7), herbicidal activity on weeds not listed separately; conditions: for activity to key weeds such as Digitaria sanguinalis, Leptochloa chinensis compared with the corresponding racemate or S configuration: dose of 125, 60, 30, 15 g/ha
Text: (§2) The above growth control rates are fresh weight control rates.
(§3) Experiment on weeding effect in post-emergence stage: monocotyledonous and dicotyledonous weed seeds (Descurainia sophia, Capsella bursa-pastoris, Galium aparine, Stellaria media, Lithospermum arvense, Rorippa indica, Alopecurus aequalis, Beckmannia syzigachne, Sclerochloa dura, Phleum paniculatum, Bromus japonicus, Aegilops tauschii, Phalaris arundinacea, Amaranthus retroflexus, Chenopodiaceae, Commelina communis, Sonchus arvensis, convolvulus arvensis, Cirsium setosum, Solanum nigrum, Acalypha australis, Digitaria sanguinalis, Echinochloa crusgalli, Setaria viridis, Setaria glauca, Leptochloa chinensis, Monochoria vaginalis, Sagittaria trifolia, Scirpus juncoides, Cyperus rotundus, Cyperus iria, Cyperus difformis, Fimbristylis, Portulaca oleracea, Xanthium sibiricum, Pharbitis nil) and major crop seeds (wheat, corn, rice, soybean, cotton, oilseed rape, millet, sorghum, potato, sesame, ricinus) were placed in plastic pots filled with soil, then covered with 0.5-2 cm of soil, allowed to grow in a good greenhouse environment. After 2 weeks of sowing, the test plants were treated in the 2 leaf stage. The tested compounds of the present invention were respectively dissolved in acetone, then added with Tween 80 and 1.5 liter/ha of emulsifiable concentrate of methyl oleate as synergist, diluted with a certain amount of water to obtain a solution with a certain concentration, and sprayed with a spray tower onto the plants. After the application, the plants were cultured for 15 days in the greenhouse, and then the experimental results of the weeding were counted. The doses of the used compounds were 500, 250, 125, 60, 30, 15 g/ha, and the averages were obtained by repeating for three times.
(§4) If there is no clear marker, the post-seedling test conditions are the same as above, and the experimental results are shown in Tables 4-7.

[7] = tested on: rice and other crops; test: Comparison experiment (post-emergence, Tables 4-7), crop safety; conditions: dose of 125, 60, 30, 15 g/ha
Text: as §2, §3, §4

SMILES | weeding effect in post-emergence stage, activity level (growth control rate), Abutilon theophrasti [1] | weeding effect in post-emergence stage, activity level (growth control rate), Amaranthus retroflexus [2] | weeding effect in post-emergence stage, activity level (growth control rate), Digitaria sanguinalis [3] | weeding effect in post-emergence stage, activity level (growth control rate), Echinochloa crusgali [4] | weeding effect in post-emergence stage, activity level (growth control rate), Setaria viridis [5] | activity to key weeds such as Digitaria sanguinalis, Leptochloa chinensis compared with the corresponding racemate or S configuration [6] | safety to rice and other crops compared with the corresponding racemate or S configuration [7] | herbicidal activity and/or crop safety compared with the corresponding racemate or S configuration ([6]; dose of 120, 48, 30, 24 g/ha) | herbicidal activity and/or crop safety compared with the corresponding racemate or S configuration ([6]; doses of 125, 60, 30, 15 g/ha, X replaced by other five membered rings) | herbicidal activity and/or crop safety compared with the corresponding racemate or S configuration ([6]; no dose stated)
CC[S@@+]([O-])c1c(C(F)(F)F)ccc(C(=O)Nc2nnc(C)o2)c1F [Compound 2] | 5 (Level 5: growth control rate is above 85%) | 5 (Level 5: growth control rate is above 85%) | 4 (Level 4: growth control rate is greater than or equal to 60% and less than 85%) | 5 (Level 5: growth control rate is above 85%) | 4 (Level 4: growth control rate is greater than or equal to 60% and less than 85%) | better activity | higher safety |  |  | 
CCCCC[S@@+]([O-])c1c(C(F)(F)F)ccc(C(=O)Nc2nnc(C)o2)c1F [Compound 8] | 5 (Level 5: growth control rate is above 85%) | 5 (Level 5: growth control rate is above 85%) | 4 (Level 4: growth control rate is greater than or equal to 60% and less than 85%) | 5 (Level 5: growth control rate is above 85%) | 4 (Level 4: growth control rate is greater than or equal to 60% and less than 85%) | better activity | higher safety |  |  | 
Cc1nnc(NC(=O)c2ccc(C(F)(F)F)c([S@+]([O-])CCC3CC3)c2F)o1 [Compound 17] | 5 (Level 5: growth control rate is above 85%) | 5 (Level 5: growth control rate is above 85%) | 5 (Level 5: growth control rate is above 85%) | 5 (Level 5: growth control rate is above 85%) | 5 (Level 5: growth control rate is above 85%) | better activity | higher safety |  |  | 
C=CCC[S@@+]([O-])c1c(C(F)(F)F)ccc(C(=O)Nc2nnc(C)o2)c1F [Compound 20] | 5 (Level 5: growth control rate is above 85%) | 5 (Level 5: growth control rate is above 85%) | 5 (Level 5: growth control rate is above 85%) | 5 (Level 5: growth control rate is above 85%) | 5 (Level 5: growth control rate is above 85%) | better activity | higher safety |  |  | 
Cc1nnc(NC(=O)c2ccc(C(F)(F)F)c([S@+]([O-])CC3COC3)c2F)o1 [Compound 80] |  | 5 (Level 5: growth control rate is above 85%) |  | 5 (Level 5: growth control rate is above 85%) |  | better activity | higher safety |  |  | 
Cc1nnc(NC(=O)c2ccc(C(F)(F)F)c([S@+]([O-])Cc3cn(C)nc3C)c2F)o1 [Compound 184] |  | 5 (Level 5: growth control rate is above 85%) |  | 5 (Level 5: growth control rate is above 85%) |  | better activity | higher safety |  |  | 
CC[S@@+]([O-])c1c(C(F)(F)F)ccc(C(=O)N(c2nnc(C)o2)C(C)OC(=O)OC)c1F (stereo partly shown) [Compound 248] |  | 5 (Level 5: growth control rate is above 85%) |  | 5 (Level 5: growth control rate is above 85%) |  | better activity | higher safety |  |  | 
CSc1c(C(=O)Nc2nnc(C)o2)ccc(C(F)(F)F)c1[S@+]([O-])CCCF [Compound 559] | 5 (Level 5: growth control rate is above 85%) | 5 (Level 5: growth control rate is above 85%) | 5 (Level 5: growth control rate is above 85%) | 5 (Level 5: growth control rate is above 85%) | 5 (Level 5: growth control rate is above 85%) |  |  | better herbicidal activity and/or crop safety |  | 
CCC[S@@+]([O-])c1c(C(F)(F)F)ccc(C(=O)Nc2nnc(C)o2)c1SCC [Compound 569] | 5 (Level 5: growth control rate is above 85%) | 5 (Level 5: growth control rate is above 85%) | 5 (Level 5: growth control rate is above 85%) | 5 (Level 5: growth control rate is above 85%) | 5 (Level 5: growth control rate is above 85%) |  |  | better herbicidal activity and/or crop safety |  | 
CCC[S@@+]([O-])c1c(C(F)F)ccc(C(=O)Nc2nnnn2C)c1F [Compound 856] | 5 (Level 5: growth control rate is above 85%) | 5 (Level 5: growth control rate is above 85%) | 5 (Level 5: growth control rate is above 85%) | 5 (Level 5: growth control rate is above 85%) | 5 (Level 5: growth control rate is above 85%) |  |  |  | better herbicidal activity and/or crop safety | 
CCC[S@@+]([O-])c1c(C(F)F)ccc(C(=O)Nc2nnc(C)o2)c1OC [Compound 864] | 5 (Level 5: growth control rate is above 85%) | 5 (Level 5: growth control rate is above 85%) | 5 (Level 5: growth control rate is above 85%) | 5 (Level 5: growth control rate is above 85%) | 5 (Level 5: growth control rate is above 85%) |  |  |  |  | better herbicidal activity and/or crop safety
CCC[S@@+]([O-])c1c(C(F)F)ccc(C(=O)Nc2nnc(C)o2)c1SC [Compound 865] | 5 (Level 5: growth control rate is above 85%) | 5 (Level 5: growth control rate is above 85%) | 5 (Level 5: growth control rate is above 85%) | 5 (Level 5: growth control rate is above 85%) | 5 (Level 5: growth control rate is above 85%) |  |  | better herbicidal activity and/or crop safety |  | 
